Measured values taken from patent US20250179032A1, “HETEROCYCLIC INHIBITORS OF GLUT9 FOR TREATMENT OF DISEASE” (HORIZON THERAPEUTICS IRELAND DAC, priority 2022, published 2025).

What follows are compounds tested against T1, H. sapiens SLC2A9 variant 2 (GLUT9B) (Homo sapiens, UniProt Q9NRM0) (assay: GLUT9 functional assay: uric acid uptake in HEK293T cells, allantoin formation by MS/MS as proxy of GLUT9B inhibition). Conditions: 15 minute assay; HEK293T cells stably expressing GLUT9B and transiently A. oryzae uricase; uric acid 0.3 mM, 37° C.; read-out: 15 min IC50.
T1 sequence (Q9NRM0 1-511 isoform Q9NRM0-2): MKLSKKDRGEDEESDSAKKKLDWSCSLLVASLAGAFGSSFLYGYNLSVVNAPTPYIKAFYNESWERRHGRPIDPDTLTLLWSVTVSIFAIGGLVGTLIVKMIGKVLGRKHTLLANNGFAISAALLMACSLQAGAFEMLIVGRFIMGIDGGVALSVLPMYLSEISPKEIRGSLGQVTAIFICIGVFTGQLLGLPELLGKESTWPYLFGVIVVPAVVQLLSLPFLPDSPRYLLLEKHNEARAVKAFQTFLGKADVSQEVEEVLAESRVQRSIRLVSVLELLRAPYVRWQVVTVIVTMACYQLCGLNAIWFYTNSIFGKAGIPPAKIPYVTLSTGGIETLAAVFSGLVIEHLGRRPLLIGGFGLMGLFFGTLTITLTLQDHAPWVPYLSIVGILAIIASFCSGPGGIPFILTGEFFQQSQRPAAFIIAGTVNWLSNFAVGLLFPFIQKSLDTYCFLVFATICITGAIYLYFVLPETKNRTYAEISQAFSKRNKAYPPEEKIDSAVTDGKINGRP
Type: cell-based
Protocol: Uric acid stocks (9 mM, Millipore-Sigma, U0881) were generated in 125 mM choline chloride (Millipore-Sigma, C7017) and the concentration was determined at 293 nm using a molar extinction coefficient of 9600 M- ^1 cm- ^1) after collecting the absorbance spectra from 220-350 nm. Allantoin stocks (12 mM Toronto Research Chemicals, A540500) were generated in LCMS grade water (Thermo Scientific, 51140). The concentration of allantoin was determined by qNMR (Michigan State University). HEK293T cells were purchased from ATCC (HEK 293T/17 SF). Hanks buffered saline salts (HBSS) was purchased from Millipore-Sigma (H6648-1L).
SLC2A9 variant 2 was assayed in sodium gluconate buffer was composed of 125 mM sodium gluconate (TCI Chemicals, G0041-500G), 4.8 mM potassium gluconate (TCI Chemicals, G0040-500G), 1.2 mM calcium gluconate (TCI Chemicals, G0037-500G), 1.2 mM potassium phosphate (pH 7.4, Millipore-Sigma, 17835), 1.2 mM MgSO4, Millipore-Sigma, M2773-500G), 25 mM HEPES pH 7.3, (Millipore-Sigma, 54457). The final pH of the buffer was 7.4. Urate 1 was assayed in the same buffer save the pH was made to be 5.5 using 25 mM MES (pH 5.5) buffer vs 25 mM HEPES (pH 7.3) buffer.
Human untagged clone for (untagged)-human solute carrier family 2 member 9 (SLC2A9), transcript variant (SLC2A9/NM_001001290, FIG. 1 and FIG. 2; SEQ ID NOS: 3 and 4) was purchased from Origene (Cat #SC319239). SLC2A9 variant 2 (GLUT9B) gene was amplified by PCR using the following primer to allow for the introduction of EcoR1 and Not1 sites using the primers below.
HEK293T clonal stable cell lines containing the SLC2A9 variant 2 construct in the bicistronic pIRESpuro vector were generated using Viafect™ (Promega E4981) as per the manufactures instructions and puromycin selection (5 μg×mL^−1).
Uric acid uptake was measured in HEK293T cells stably expressing H. sapiens SLC2A9 variant 2 (GLUT9B) and transiently expressing A. oryzae uricase. Thus, decreased allantoin formation was used as a proxy of GLUT9B inhibition. Briefly, clonal cells were plated (53,000 cells/cm^2) in DMEM with 10% FBS. Twenty-four hours later, A. oryzae uricase was transfected, and assay conducted 3 days later across a 12-point curve in buffer (in mM: 125 sodium gluconate, 4.8 potassium gluconate, 1.2 calcium gluconate, 1.2 potassium phosphate, 1.2 magnesium sulfate4, 25 HEPES; pH 7.4) with uric acid at the GLUT9B Km (0.3 mM) for 15 min or for 60 min, at 37° C. Following wash (Hanks, 37° C.), plates were sealed, incubated (5 min, RT) and cells freeze-thawed prior to lysing in water and shaking (30 min RT). Lysates were filtered through PVDF and subjected to MSMS using a 10 mM ammonium acetate-based mobile phase on a porous graphitic carbon column. Allantoin was detected in positive ion mode. Desired analyte concentrations were quantitated by integrating the area under the curve followed by a log-logistic regression model and data compared to a standard curve prepared in a matching HEK293T biological matrix.
Mass spectrometry measurement of allantoin was completed using an Agilent RapidFire 300 coupled to a Sciex API 4000 mass spectrometer. The stationary phase was an Agilent cartridge D (hypercarb). Mobile phase A was 10 mM ammonium acetate. Mobile phase B was 5 mM ammonium acetate, 25% acetonitrile, 25% acetone. Allantoin was detected in positive ion mode with the following compound ID settings: Q1 159, Q3 115.8, DP 57, CE 12.5 Dwell 100 ms. The source settings were CAD 10, CUR 20, GS1 50, GS250 IS/NC: 5000, TEM 650, EP 10, CXP 10 where Q1 and Q3 resolution were set to low.
Data was quantitated using Area under the curve integration was performed with the RapidFire™ Integrator (Agilent Technologies) for the desired analytes. Quantitation was completed using in a using a log-logistic regression model using allantoin in matching HEK293T biological matrix.

| SMILES | IC50 [nM] |
| --- | --- |
| CCCCc1cnc(-c2ccc(OCCOC(F)(F)F)cc2)c(N2CCC(C(=O)O)CC2)n1 [Compound 42, 1-(6-butyl-3-(4-(2-(trifluoromethoxy)ethoxy)phenyl)pyrazin-2-yl)piperidine-4-carboxylic acid] | > 2000 |
| CCCCc1cnc(-c2ccc(OC)s2)c(N2CCC(C(=O)O)CC2)n1 [Compound 43, 1-(6-butyl-3-(5-methoxythiophen-2-yl)pyrazin-2-yl)piperidine-4-carboxylic acid] | > 2000 |
| CCCCc1cnc(-c2cnc(OC)s2)c(N2CCC(C(=O)O)CC2)n1 [Compound 44, 1-(6-butyl-3-(2-methoxythiazol-5-yl)pyrazin-2-yl)piperidine-4-carboxylic acid] | > 2000 |
| COCCn1ccc2cc(-c3ncc(COC)nc3N3CCC(C(=O)O)CC3)cc(F)c21 [Compound 50, 1-(3-(7-fluoro-1-(2-methoxyethyl)-1H-indol-5-yl)-6-(methoxymethyl)pyrazin-2-yl)piperidine-4-carboxylic acid] | > 2000 |
| COCc1cnc(-c2cc(F)c3c(ccn3C)c2)c(N2CCC(C(=O)O)CC2)n1 [Compound 51, 1-(3-(7-fluoro-1-methyl-1H-indol-5-yl)-6-(methoxymethyl)pyrazin-2-yl)piperidine-4-carboxylic acid] | > 2000 |
| COc1ccc(-c2nc(Cl)c(COCC(F)(F)F)nc2N2CCC(C(=O)O)CC2)cc1 [Compound 54, 1-(5-chloro-3-(4-methoxyphenyl)-6-((2,2,2-trifluoroethoxy)methyl)pyrazin-2-yl)piperidine-4-carboxylic acid] | > 2000 |
| COCc1nc(N2CCC(C(=O)O)CC2)c(-c2cc(F)c3c(ccn3C)c2)nc1Cl [Compound 56, 1-(5-chloro-3-(7-fluoro-1-methyl-1H-indol-5-yl)-6-(methoxymethyl)pyrazin-2-yl)piperidine-4-carboxylic acid] | > 2000 |
| O=C(O)C1CCN(c2nc(COCC(F)(F)F)cnc2-c2ccc3oc(F)cc3c2)CC1 [Compound 57, 1-(3-(2-fluorobenzofuran-5-yl)-6-((2,2,2-trifluoroethoxy)methyl)pyrazin-2-yl)piperidine-4-carboxylic acid] | > 2000 |
| O=C(O)C1CCN(c2nc(COCC(F)(F)F)cnc2-c2ccc(Cl)c(OC(F)(F)F)c2)CC1 [Compound 58, 1-(3-(4-chloro-3-(trifluoromethoxy)phenyl)-6-((2,2,2-trifluoroethoxy)methyl)pyrazin-2-yl)piperidine-4-carboxylic acid] | > 2000 |
| O=C(O)C1CCN(c2nc(CCC(F)(F)F)cnc2-c2ccc3oc(F)cc3c2)CC1 [Compound 60, 1-(3-(2-fluorobenzofuran-5-yl)-6-(3,3,3-trifluoropropyl)pyrazin-2-yl)piperidine-4-carboxylic acid] | 500 to 2000 |
| COc1cc(-c2ncc(CCC(F)(F)F)nc2N2CCC(C(=O)O)CC2)ccc1Cl [Compound 62, 1-(3-(4-chloro-3-methoxyphenyl)-6-(3,3,3-trifluoropropyl)pyrazin-2-yl)piperidine-4-carboxylic acid] | > 2000 |
| O=C(O)c1c[nH]c2cc(-c3cc(CCC(F)(F)F)cnc3-c3cc(F)c4occc4c3)ccc12 [Compound 63, 6-(2-(7-fluorobenzofuran-5-yl)-5-(3,3,3-trifluoropropyl)pyridin-3-yl)-1H-indole-3-carboxylic acid] | 500 to 2000 |
| O=C(O)C1CCN(c2nc(COCC(F)(F)F)cnc2-c2cnc3occc3c2)CC1 [Compound 64, 1-(3-(furo[2,3-b]pyridin-5-yl)-6-((2,2,2-trifluoroethoxy)methyl)pyrazin-2-yl)piperidine-4-carboxylic acid] | > 2000 |

The next lines start with the values.

| IC50 [nM] | SMILES |
| --- | --- |
| < 500 | CCCCc1cnc(-c2ccc(OC)cc2)c(-c2ccc3c(C(=O)O)coc3c2)c1 [Compound 40, 6-(5-butyl-2-(4-methoxyphenyl)pyridin-3-yl)benzofuran-3-carboxylic acid] |
| 500 to 2000 | CCCCc1cnc(-c2ccc(OC)cc2)c(N2CCc3c(C(=O)O)csc3C2)n1 [Compound 41, 6-(6-butyl-3-(4-methoxyphenyl)pyrazin-2-yl)-4,5,6,7-tetrahydrothieno[2,3-c]pyridine-3-carboxylic acid] |
| < 500 | CCCCc1cnc(-c2ccc3c(c2)OCO3)c(N2CCC(C(=O)O)CC2)n1 [Compound 45] |
| < 500 | CCCCc1cnc(-c2cc(F)c3c(c2)OCO3)c(N2CCC(C(=O)O)CC2)n1 [Compound 46, 1-(6-butyl-3-(7-fluorobenzo[d][1,3]dioxol-5-yl)pyrazin-2-yl)piperidine-4-carboxylic acid] |
| 500 to 2000 | CCCCc1cnc(-c2ccc3c(c2)C(=O)CO3)c(N2CCC(C(=O)O)CC2)n1 [Compound 47, 1-(6-butyl-3-(3-oxo-2,3-dihydrobenzofuran-5-yl)pyrazin-2-yl)piperidine-4-carboxylic acid] |
| < 500 | CCCCc1cnc(-c2ccc(OC)cc2)c(N2CCC(CCC(=O)O)CC2)n1 [Compound 48, 3-(1-(6-butyl-3-(4-methoxyphenyl)pyrazin-2-yl)piperidin-4-yl)propanoic acid] |
| 500 to 2000 | COCc1cnc(-c2cc(F)c3occc3c2)c(N2CCC(C(=O)O)CC2)n1 [Compound 49, 1-(3-(7-fluorobenzofuran-5-yl)-6-(methoxymethyl)pyrazin-2-yl)piperidine-4-carboxylic acid] |
| < 500 | COCc1cnc(-c2cc(F)c3ccn(C)c3c2)c(N2CCC(C(=O)O)CC2)n1 [Compound 52, 1-(3-(4-fluoro-1-methyl-1H-indol-6-yl)-6-(methoxymethyl)pyrazin-2-yl)piperidine-4-carboxylic acid] |
| < 500 | COCC(COC)Cc1cnc(-c2cc(F)c3occc3c2)c(N2CCC(C(=O)O)CC2)n1 [Compound 53, 1-(3-(7-Fluorobenzofuran-5-yl)-6-(3-Methoxy-2-(methoxymethyl)propyl)pyrazin-2-yl)piperidine-4-carboxylic acid] |
| 500 to 2000 | COCc1cnc(-c2cc(F)c3c(c2)CCO3)c(N2CCC(C(=O)O)CC2)n1 [Compound 55, 1-(3-(7-fluoro-2,3-dihydrobenzofuran-5-yl)-6-(methoxymethyl)pyrazin-2-yl)piperidine-4-carboxylic acid] |
| < 500 | O=C(O)c1c[nH]c2cc(-c3cc(COC(F)(F)F)cnc3-c3cc(F)c4occc4c3)ccc12 [Compound 59, 6-(2-(7-fluorobenzofuran-5-yl)-5-((trifluoromethoxy)methyl)pyridin-3-yl)-1H-indole-3-carboxylic acid] |
| < 500 | O=C(O)C1CCN(c2nc(CCC(F)(F)F)cnc2-c2cc(F)c3occc3c2)CC1 [Compound 61, 1-(3-(7-Fluorobenzofuran-5-yl)-6-(3,3,3-Trifluoropropyl)Pyrazin-2-yl)piperidine-4-carboxylic acid] |
